Legend:
Albumin [1] = target: T1, Albumin (Homo sapiens, UniProt P02768); assay: Protein binding in immobilized human serum albumin by HPLC analysis; assay type: ADME; details: read-out: PB (converted)
Albumin [2] = target: T1, Albumin; assay: Protein binding in human serum albumin after 4.5 hrs by LC-MS based rapid equilibrium dialysis method; assay type: ADME; details: read-out: PB (converted)
[3] = Protein binding in plasma (unknown origin); assay type: ADME, cell-free; details: read-out: PPB (converted)
Albumin [4] = target: T1, Albumin; assay: Protein binding in immobilized human serum albumin after 15 mins by HPLC analysis; assay type: ADME; details: read-out: PB (converted)

T1 sequence (P02768 whole entry): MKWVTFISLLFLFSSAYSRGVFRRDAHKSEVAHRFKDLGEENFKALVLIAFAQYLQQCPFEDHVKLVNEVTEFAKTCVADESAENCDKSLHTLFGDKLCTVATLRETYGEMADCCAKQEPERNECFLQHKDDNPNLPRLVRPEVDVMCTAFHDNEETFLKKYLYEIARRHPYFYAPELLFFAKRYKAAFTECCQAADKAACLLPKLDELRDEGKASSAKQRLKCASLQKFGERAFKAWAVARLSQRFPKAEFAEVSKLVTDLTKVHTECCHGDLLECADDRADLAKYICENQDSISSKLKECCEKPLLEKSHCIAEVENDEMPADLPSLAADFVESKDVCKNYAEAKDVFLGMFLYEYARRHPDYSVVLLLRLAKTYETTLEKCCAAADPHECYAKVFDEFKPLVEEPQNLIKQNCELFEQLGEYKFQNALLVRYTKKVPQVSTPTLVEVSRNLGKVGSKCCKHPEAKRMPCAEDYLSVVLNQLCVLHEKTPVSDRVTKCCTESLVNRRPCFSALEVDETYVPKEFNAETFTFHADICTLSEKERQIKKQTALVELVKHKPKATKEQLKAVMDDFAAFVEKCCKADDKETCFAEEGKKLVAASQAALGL

Row | Compound | fraction unbound (Albumin [1]) | fraction unbound at 4.5 h (Albumin [2]) | fraction unbound [3] | fraction unbound at 0.25 h (Albumin [4])
1 | CCN(CC)CCC[C@H](C)Nc1ccnc2cc(Cl)ccc12 | 0.495 | – | – | –
2 | CN1C(C(=O)Nc2ccccn2)=C(O)c2sccc2S1(=O)=O [TENOXICAM] | – | 0.032 | – | –
3 | CN1C(C(=O)Nc2ccccn2)=C(O)c2ccccc2S1(=O)=O [PIROXICAM] | – | – | 0.01 | –
4 | NC(N)=Nc1nc(CSCCC(N)=NS(N)(=O)=O)cs1 [FAMOTIDINE] | 0.749 | 0.956 | 0.8 | –
5 | CN(C)CCCN1c2ccccc2CCc2ccccc21 [IMIPRAMINE] | 0.151 | – | 0.074 to 0.099 | –
6 | Cc1ncc([N+](=O)[O-])n1CCO [METRONIDAZOLE] | – | – | 0.89 to 0.9 | –
7 | COC1=C(C(=O)Nc2ncc(C)s2)N(C)S(=O)(=O)c2ccccc21 | 0.158 | 0.341 | – | –
8 | CO/N=C(\C(=O)N[C@@H]1C(=O)N2C(C(=O)O)=C(COC(N)=O)CS[C@H]12)c1ccco1 [CEFUROXIME] | – | – | 0.67 to 0.685 | –
9 | Cc1cnc(NC(=O)C2=C(O)c3ccccc3S(=O)(=O)N2C)s1 [MELOXICAM] | 0.001 | 0.033 | – | –
10 | CN1C(C(=O)Nc2ccccn2)=C(O)c2sc(Cl)cc2S1(=O)=O [LORNOXICAM] | – | 0.02 | – | –
11 | CNC(=O)Oc1ccc2c(c1)[C@]1(C)CCN(C)[C@@H]1N2C [PHYSOSTIGMINE] | 0.8 | 0.903 | – | –
12 | CCCCc1c(OC)n(-c2ccccc2)n(-c2ccccc2)c1=O | 0.071 | 0.071 | – | –
13 | COc1cc(Cc2cnc(N)nc2N)cc(OC)c1OC [TRIMETHOPRIM] | 0.627 | 0.969 | 0.585 to 0.625 | –
14 | CCOC(=O)c1cc(-c2ccc(F)cc2F)ccc1O | 0.025 | – | – | –
15 | NNC(=O)c1ccncc1 [ISONIAZID] | 0.891 | – | 1 | 0.932
16 | CCCCC1(C)C(=O)N(c2ccccc2)N(c2ccccc2)C1=O | 0.15 | 0.359 | – | –
17 | O=C1CN=C(c2ccccc2)c2cc([N+](=O)[O-])ccc2N1 [NITRAZEPAM] | 0.233 | – | – | –
18 | CCN(CC)CCOC(=O)c1ccc(N)cc1 [PROCAINE] | – | – | 0.94 | 0.64
19 | CC(C)NCC(O)COc1cccc2ccccc12 (stereo not drawn) [PROPRANOLOL] | 0.375 | – | – | –
20 | CC1=C(CC(=O)O)c2cc(F)ccc2/C1=C\c1ccc([S+](C)[O-])cc1 (stereo not drawn) | – | – | 0.06 to 0.065 | –

Reference: ChEMBL document CHEMBL4321884, “Human Serum Albumin Binding in a Vial: A Novel UV-pH Titration Method To Assist Drug Design” (J Med Chem, 2020)
